In patent US20240245677A1, “SELECTED COMPOUNDS FOR TARGETED DEGRADATION OF BRD9” (C4 THERAPEUTICS, INC., priority 2021, published 2024):
Values joined by “and” are separate entries in the source; they are usually repeats but may differ in a detail not shown here. Identical values can stand only once. Like-named read-outs stand apart in the source and are kept apart here.

Target: T1, CRBN-DDB1 (Homo sapiens, UniProt Q96SW2)
T1 construct: His; purchased Wuxi Biortus Biosciences Co., Ltd
Test: Fluorescence polarization competition binding assay, CRBN-DDB1
Conditions: FP competition
Experimental: Fluorescence polarization (FP) competition experiments were used to determine the binding affinity of Compound 1 to purified CRBN-DDB1 protein.
Human Histidine (His) CRBN and non-tag DDB1 (CRBN-DDB1 (5.64 mg/mL in 25 mM HEPES, 300 mM NaCl, 1 mM TCEP, pH 7.5)) was purchased from Wuxi Biortus Biosciences Co., Ltd. (Jiangsu, China) and stored at −80° C. until use. Potent CRBN-DDB1 ligand was chemically labeled with the commercially available fluorophore Alexa Fluor™ 647 (Invitrogen, Waltham, MA, USA) following manufacturer's instructions. Fluorescently labelled CRBN-DDB1 binding compound at 0.3 mM in DMSO was stored at −20° C.
The determination of the binding constant (Kd) of Compound 1 to CRBN-DDB1 was carried out using an established, sensitive and quantitative in vitro fluorescence polarization (FP) binding assay (Nasir & Jolley, 1999). […]
A 20 μL mixture containing 150 nM CRBN-DDB1 and 5 nM probe dye in 50 mM HEPES, pH 7.4, 200 mM NaCl, 1 mM TCEP and 0.05% Pluronic Acid F-127 was added to wells containing compound and incubated at room temperature for 1.5 hours. […] Matching control plates excluding CRBN-DDB1 were used to correct for background fluorescence (Shapiro et al., 2009). Plates were read on an EnVision® multimode plate reader (Catalog No. 2104-0010, Perkin Elmer Inc., Dumfries, VA, USA) with Cy5 polarization filters and mirror. […]

COc1cc(-c2cn(C)c(=O)c(C)c2C)cc(OC)c1CN1CC[C@H](N2CCN(c3ccc(N[C@H]4CCC(=O)NC4=O)cc3F)CC2)C(F)(F)C1 [Compound 1, (S)-3-((4-(4-((S)-1-(2,6-dimethoxy-4-(1,4,5-trimethyl-6-oxo-1,6-dihydropyridin-3-yl)benzyl)-3,3-difluoropiperidin-4-yl)piperazin-1-yl)-3-fluorophenyl)amino)-piperidine-2,6-dione]
Kd (each occasion in duplicate, read-out: Kd, individual test occasion): 2100 nM and 1600 nM and 2300 nM
Kd (n=3, read-out: Kd (geometric mean), binding to CRBN-DDB1): 2000 nM
